In the NIST ThermoML archive (doi:10.1021/je5004719):

Experiment: xn = mol fraction of the nth substance listed
Details: 101 kPa, Liquid; for speed of sound: Sing-around technique in a fixed-path interferometer; for mass density: Vibrating tube method

C1CCOCC1 [tetrahydropyran] + c1ccccc1
Details	mass density, 298.15 K [kg/m3]	mass density, 303.15 K [kg/m3]	speed of sound, 298.15 K [m/s]	speed of sound, 303.15 K [m/s]
x1 = 0.0789	874.6	869.25	1298.9	1274
x1 = 0.1324	875.21	869.87	1298.2	1272.5
x1 = 0.1784	875.68	870.35	1297.5	1271.2
x1 = 0.2239	876.1	870.78	1296.6	1269.8
x1 = 0.2876	876.63	871.32	1295.2	1267.9
x1 = 0.3276	876.92	871.63	1294.2	1266.7
x1 = 0.3769	877.26	871.97	1292.9	1265.2
x1 = 0.4285	877.58	872.3	1291.4	1263.6
x1 = 0.4794	877.87	872.59	1289.8	1262
x1 = 0.5598	878.27	872.99	1287.2	1259.6
x1 = 0.6024	878.46	873.17	1285.8	1258.3
x1 = 0.6534	878.66	873.37	1284	1256.9
x1 = 0.7006	878.82	873.53	1282.3	1255.5
x1 = 0.7432	878.95	873.65	1280.7	1254.2
x1 = 0.7943	879.07	873.77	1278.8	1252.8
x1 = 0.8213	879.12	873.83	1277.7	1252
x1 = 0.8763	879.18	873.92	1275.4	1250.4
x1 = 0.9148	879.2	873.96	1273.7	1249.3

Cc1ccccc1Cl [2-chlorotoluene] + Cc1ccccc1
Details	mass density, 298.15 K [kg/m3]	mass density, 303.15 K [kg/m3]	mass density, 308.15 K [kg/m3]	speed of sound, 298.15 K [m/s]	speed of sound, 303.15 K [m/s]	speed of sound, 308.15 K [m/s]
x1 = 0.0935	884.2	879.51	874.8	1302	1281.3	1260.6
x1 = 0.1346	893.74	889.04	884.33	1301.2	1280.6	1260.2
x1 = 0.1681	901.47	896.76	892.04	1300.5	1280.2	1259.9
x1 = 0.2393	917.7	912.99	908.26	1299.5	1279.4	1259.3
x1 = 0.2782	926.47	921.75	917.02	1299	1279	1259
x1 = 0.3342	938.97	934.25	929.51	1298.5	1278.7	1258.8
x1 = 0.3871	950.65	945.92	941.17	1298.1	1278.5	1258.7
x1 = 0.4375	961.66	956.92	952.17	1297.9	1278.3	1258.7
x1 = 0.4872	972.41	967.66	962.89	1297.7	1278.3	1258.8
x1 = 0.5312	981.84	977.07	972.3	1297.6	1278.3	1259
x1 = 0.5912	994.55	989.78	984.99	1297.4	1278.4	1259.3
x1 = 0.6218	1001	996.2	991.4	1297.4	1278.5	1259.5
x1 = 0.6753	1012.1	1007.3	1002.5	1297.4	1278.7	1260
x1 = 0.7231	1022	1017.2	1012.3	1297.4	1278.9	1260.4
x1 = 0.7854	1034.7	1029.9	1025	1297.6	1279.2	1261
x1 = 0.8351	1044.7	1039.9	1035	1297.7	1279.5	1261.5
x1 = 0.8824	1054.2	1049.3	1044.5	1297.9	1279.8	1262
x1 = 0.9231	1062.3	1057.4	1052.5	1298.1	1280.1	1262.3

Cc1ccccc1Cl [2-chlorotoluene] + Cc1ccccc1C
Details	mass density, 298.15 K [kg/m3]	mass density, 303.15 K [kg/m3]	mass density, 308.15 K [kg/m3]	speed of sound, 298.15 K [m/s]	speed of sound, 303.15 K [m/s]	speed of sound, 308.15 K [m/s]
x1 = 0.0872	893.06	888.78	884.5	1341.6	1321.9	1302.1
x1 = 0.1276	901.04	896.73	892.42	1339.4	1319.8	1300.2
x1 = 0.1754	910.51	906.16	901.82	1337	1317.4	1298
x1 = 0.2243	920.22	915.84	911.46	1334.4	1315	1295.6
x1 = 0.2765	930.61	926.19	921.78	1331.8	1312.4	1293.1
x1 = 0.3241	940.11	935.66	931.22	1329.4	1310.1	1290.8
x1 = 0.3762	950.54	946.05	941.57	1326.8	1307.6	1288.4
x1 = 0.4216	959.64	955.13	950.62	1324.6	1305.4	1286.3
x1 = 0.4932	974.04	969.48	964.92	1321.2	1302.1	1283.1
x1 = 0.5243	980.31	975.73	971.15	1319.7	1300.7	1281.8
x1 = 0.5721	989.96	985.35	980.74	1317.5	1298.6	1279.8
x1 = 0.6158	998.81	994.17	989.52	1315.5	1296.7	1278
x1 = 0.6761	1011	1006.4	1001.7	1312.7	1294.1	1275.6
x1 = 0.7245	1020.9	1016.2	1011.4	1310.6	1292.1	1273.7
x1 = 0.7865	1033.5	1028.8	1024	1307.8	1289.6	1271.3
x1 = 0.8254	1041.5	1036.7	1031.9	1306.1	1288	1269.8
x1 = 0.8795	1052.5	1047.7	1042.9	1303.8	1285.8	1267.7
x1 = 0.9192	1060.7	1055.9	1051	1302.1	1284.1	1266.1

C1CCOCC1 [tetrahydropyran] + Cc1ccccc1
Details	mass density, 298.15 K [kg/m3]	mass density, 303.15 K [kg/m3]	speed of sound, 298.15 K [m/s]	speed of sound, 303.15 K [m/s]
x1 = 0.0834	863.93	859.19	1303.2	1281.1
x1 = 0.1245	864.77	859.99	1302.3	1280
x1 = 0.1765	865.79	860.99	1301.2	1278.7
x1 = 0.2387	866.99	862.15	1299.7	1277.1
x1 = 0.3017	868.16	863.3	1298.1	1275.3
x1 = 0.3541	869.11	864.23	1296.6	1273.8
x1 = 0.4098	870.1	865.2	1295	1272.2
x1 = 0.4467	870.74	865.83	1293.9	1271
x1 = 0.4915	871.51	866.59	1292.5	1269.5
x1 = 0.5487	872.47	867.53	1290.6	1267.5
x1 = 0.6008	873.33	868.36	1288.8	1265.6
x1 = 0.6472	874.08	869.09	1287.1	1263.7
x1 = 0.6954	874.84	869.83	1285.2	1261.8
x1 = 0.7321	875.41	870.38	1283.7	1260.2
x1 = 0.7832	876.18	871.13	1281.5	1257.9
x1 = 0.8241	876.78	871.71	1279.6	1255.9
x1 = 0.8937	877.76	872.65	1276.1	1252.5
x1 = 0.9205	878.12	873	1274.6	1251.1
